Assay results: patent publication US5371090A, “Naphthyridonecarboxylic acid derivatives” (Bayer Aktiengesellschaft, priority 1991, dated 1994)
≈ marks a conversion by molar mass, not a printed value. Where two headings read alike, the source gives them in different places.

How the values were obtained:
Assay in all cases: MIC on Iso-Sensitest agar, serial dilution
Format in all cases: cell-based
[1] = tested on: E. coli; settings: Escherichia coli, 20 h, 37° C., approx. 20 hours
Method: (§1) The minimum inhibitory concentrations (MICs) were determined on Iso-Sensitest agar (Oxoid) using serial dilution methods. For each test substance a series of agar plates was prepared which contained concentrations of the active substance which decreased as the dilution factor was doubled. The agar plates were inoculated by means of a multipoint inoculator (Denley). The inocula used were overnight cultures of the pathogens which had previously been diluted to such an extent that each inoculation point contained approx. 10^4 colony-forming units. The inoculated agar plates were incubated at 37° C., and the growth of the germs was read off after approx. 20 hours.

[2] = tested on: Enterococcus faecalis
Method: as §1

[3] = tested on: Klebsiella sp.
Method: as §1

[4] = tested on: Providencia spp.
Method: as §1

[5] = tested on: Pseudomonas aeruginosa
Method: as §1, with “hours. The MIC value (μg/ml) indicates the lowest concentration of active compound at which no growth could be observed with the naked eye.” for “hours.”

[6] = tested on: Staphylococcus aureus; settings: 37° C., approx. 20 hours
Method: as §1, with “hours. The MIC value (μg/ml) indicates the lowest concentration of active compound at which no growth could be observed with the naked eye.” for “hours.”

[7] = tested on: Morganella morg.
Method: as §1

[8] = Enterococcus faecalis, 20 h, Enterococcus faecalis strain 9790, 37° C., approx. 20 hours, read-out: MIC
[9] = Pseudomonas aeruginosa strain Walter, 37° C., approx. 20 hours, read-out: MIC
[10] = Staphylococcus aureus strain 133
[11] = Staphylococcus aureus strain 1756, read-out: MIC
[12] = Enterococcus faecalis, 20 h, Enterococcus faecalis strain 9790, 37° C., approx. 20 hours
[13] = Enterococcus faecalis, 20 h, Enterococcus faecalis strain 27101, 37° C., approx. 20 hours
[14] = Klebsiella sp. strain 8085, 37° C., approx. 20 hours, read-out: MIC
[15] = Enterococcus faecalis, 20 h, Enterococcus faecalis strain 27101, 37° C., approx. 20 hours, read-out: MIC
[16] = Morganella morg. strain 932, 37° C., approx. 20 hours, read-out: MIC
[17] = Providencia spp. strain 12012, 37° C., approx. 20 hours, read-out: MIC
[18] = Staphylococcus aureus, 20 h, Staphylococcus aureus strain 133

Compound `Cl.O=C(O)c1cn(C2CC2)c2c(F)c(N3Cc4cccnc4C3)c(F)cc2c1=O` [Example 1B, 1-cyclopropyl-7-(5,7-dihydro-6H-pyrrolo[3,4-b]pyridin-6-yl)-6,8-difluoro-1,4-dihydro-4-oxo-3-quinolinecarboxylic acid hydrochloride] has an MIC ([1]; E. coli strain 455/7) of 8 µg/mL, an MIC ([2]; Enterococcus faecalis strain 27101, 37° C., approx. 20 hours, read-out: MIC) of 0.01 µg/mL and an MIC [2, 8] of 0.06 µg/mL. For the same compound, the MIC ([3]; Klebsiella, 20 h) was 0.25 µg/mL, the MIC ([4]; Providencia, 20 h) was 0.25 µg/mL and the MIC [5, 9] was 4 µg/mL. For the same compound, the MIC [6, 10] was 0.02 µg/mL and the MIC [6, 11] was 0.02 µg/mL.

`Nc1cccc2c1CN(c1c(F)cc3c(=O)c(C(=O)O)cn(C4CC4)c3c1F)C2` [Ref., 7-(4-amino-1,3-dihydro-isoindol-2-yl)-1-cyclopropyl-6,8-difluoro-1,4-dihydro-4-oxo-3-quinolinecarboxylic acid, reference compound] gave an MIC ([1]; E. coli strain 455/7) of 128 µg/mL (≈ 322 µM), an MIC ([1]; E. coli strain Neumann) of 0.5 µg/mL (≈ 1.26 µM) and an MIC [2, 12] of 1 µg/mL (≈ 2.52 µM). For the same compound, the MIC [2, 13] was 0.5 µg/mL (≈ 1.26 µM), the MIC [3, 14] was 4 µg/mL (≈ 10.1 µM) and the MIC ([7]; Morganella, 20 h) was 1 µg/mL (≈ 2.52 µM). The MIC ([4]; Providencia, 20 h) was 1 µg/mL (≈ 2.52 µM), the MIC [5, 9] was 128 µg/mL (≈ 322 µM) and the MIC [6, 10] was 0.03 µg/mL (≈ 0.0755 µM). For the same compound, the MIC [6, 11] was 0.03 µg/mL (≈ 0.0755 µM).

In the case of `CN1CCC2=C(C1)CN(c1c(F)cc3c(=O)c(C(=O)O)cn(C4CC4)c3c1Cl)C2` [Example 8, 8-chloro-1-cyclopropyl-6-fluoro-1,4-dihydro-7-(5-methyl-2,3,4,5,6,7-hexahydro-1H-pyrrolo[3,4-c]pyridin-2-yl)-4-oxo-3-quinolinecarboxylic acid], the MIC ([1]; E. coli strain 455/7) is reported as 1 µg/mL (≈ 2.39 µM), the MIC ([1]; E. coli strain Neumann) is reported as 0.03 µg/mL (≈ 0.0718 µM) and the MIC [2, 8] is reported as 0.06 µg/mL (≈ 0.144 µM). For the same compound, the MIC [2, 15] was 0.06 µg/mL (≈ 0.144 µM), the MIC [3, 14] was 0.06 µg/mL (≈ 0.144 µM) and the MIC [7, 16] was 0.06 µg/mL (≈ 0.144 µM). For the same compound, the MIC [4, 17] was 0.13 µg/mL (≈ 0.311 µM), the MIC ([5]; Pseudomonas aeruginosa, 20 h) was 0.5 µg/mL (≈ 1.2 µM) and the MIC [6, 10] was 0.03 µg/mL (≈ 0.0718 µM). It also gave an MIC [6, 11] of 0.03 µg/mL (≈ 0.0718 µM).

`O=C(O)c1cn(C2CC2)c2nc(N3Cc4ccncc4C3)c(F)cc2c1=O` [Example 6, 1-cyclopropyl-7-(2,3-dihydro-1H-pyrrolo[3,4-c]pyridin-2-yl]-6-fluoro-1,4-dihydro-4-oxo-1,8-naphthyridine-3-carboxylic acid] was tested, and the MIC ([1]; E. coli strain 455/7) was 128 µg/mL (≈ 349 µM), the MIC ([1]; E. coli strain Neumann) was 0.13 µg/mL (≈ 0.355 µM) and the MIC ([2]; Enterococcus faecalis, 20 h) was 0.5 µg/mL (≈ 1.36 µM). It also gave an MIC [2, 12] of 0.5 µg/mL (≈ 1.36 µM), an MIC ([3]; Klebsiella, 20 h) of 0.5 µg/mL (≈ 1.36 µM) and an MIC [7, 16] of 0.25 µg/mL (≈ 0.682 µM). It also gave an MIC [4, 17] of 1 µg/mL (≈ 2.73 µM), an MIC [5, 9] of 16 µg/mL (≈ 43.7 µM) and an MIC [6, 10] of 0.25 µg/mL (≈ 0.682 µM). The MIC [6, 11] was 0.25 µg/mL (≈ 0.682 µM).

`Cc1c(F)c(N2CC3=C(CN(C)CC3)C2)cc2c1c(=O)c(C(=O)O)cn2-c1ccc(F)cc1F` [Example 9, 1-(2,4-difluorophenyl)-6-fluoro-1,4-dihydro-5-methyl-7-(5-methyl-2,3,4,5,6,7-hexahydro-1H-pyrrolo[3,4-c]-pyridin-2-yl)-4-oxo-3-quinolinecarboxylic acid] gave an MIC ([1]; E. coli strain 455/7) of 128 µg/mL (≈ 273 µM), an MIC ([1]; E. coli strain Neumann) of 0.25 µg/mL (≈ 0.533 µM) and an MIC ([2]; Enterococcus faecalis, 20 h) of 0.5 µg/mL (≈ 1.07 µM). The MIC [2, 12] was 0.5 µg/mL (≈ 1.07 µM), the MIC ([3]; Klebsiella, 20 h) was 0.5 µg/mL (≈ 1.07 µM) and the MIC ([7]; Morganella, 20 h) was 0.5 µg/mL (≈ 1.07 µM). The MIC ([4]; Providencia, 20 h) was 0.5 µg/mL (≈ 1.07 µM), the MIC [5, 9] was 128 µg/mL (≈ 273 µM) and the MIC [6, 10] was 0.06 µg/mL (≈ 0.128 µM). It also gave an MIC [6, 11] of 0.06 µg/mL (≈ 0.128 µM).

`O=C(O)c1cn(C2CC2)c2nc(N3Cc4cccnc4C3)c(F)cc2c1=O` [Example 3] was tested, and the MIC ([1]; E. coli strain 455/7) was 128 µg/mL (≈ 349 µM), the MIC ([2]; Enterococcus faecalis, 20 h) was 0.5 µg/mL (≈ 1.36 µM) and the MIC [2, 12] was 0.5 µg/mL (≈ 1.36 µM). It also gave an MIC ([3]; Klebsiella, 20 h) of 0.5 µg/mL (≈ 1.36 µM), an MIC ([7]; Morganella, 20 h) of 0.25 µg/mL (≈ 0.682 µM) and an MIC ([4]; Providencia, 20 h) of 0.5 µg/mL (≈ 1.36 µM). For the same compound, the MIC ([5]; Pseudomonas aeruginosa, 20 h) was 2 µg/mL (≈ 5.46 µM), the MIC [6, 18] was 0.25 µg/mL (≈ 0.682 µM) and the MIC ([6]; Staphylococcus aureus, 20 h, Staphylococcus aureus strain 1756) was 0.25 µg/mL (≈ 0.682 µM).

Compound `CN1CCC2=C(C1)CN(c1c(F)cc3c(=O)c(C(=O)O)cn(C4CC4)c3c1F)C2.Cl` [Example 7B, 1-cyclopropyl-6,8-difluoro-1,4-dihydro-7-(5-methyl-2,3,4,5,6,7-hexahydro-1H-pyrrolo[3,4-c]-pyridin-2-yl)-4-oxo-3-quinolinecarboxylic acid hydrochloride] has an MIC ([1]; E. coli strain 455/7) of 2 µg/mL, an MIC ([1]; E. coli strain Neumann) of 0.02 µg/mL and an MIC [3, 14] of 0.06 µg/mL. It also gave an MIC [7, 16] of 0.03 µg/mL, an MIC ([5]; Pseudomonas aeruginosa, 20 h) of 1 µg/mL and an MIC [6, 10] of 0.06 µg/mL. It also gave an MIC [6, 11] of 0.06 µg/mL.

`O=C(O)c1cn(C2CC2)c2c(F)c(N3Cc4ccncc4C3)c(F)cc2c1=O` [Example 2, 1-cyclopropyl-7-(2,3-dihydro-1H-pyrrolo[3,4-c]pyridin-2-yl)-6,8-difluoro-1,4-dihydro-4-oxo-3-quinolinecarboxylic acid] was tested, and the MIC ([1]; E. coli strain 455/7) was 8 µg/mL (≈ 20.9 µM), the MIC ([1]; E. coli strain Neumann) was 0.06 µg/mL (≈ 0.157 µM) and the MIC [2, 13] was 0.25 µg/mL (≈ 0.652 µM). For the same compound, the MIC ([4]; Providencia, 20 h) was 0.25 µg/mL (≈ 0.652 µM), the MIC ([5]; Pseudomonas aeruginosa, 20 h) was 1 µg/mL (≈ 2.61 µM) and the MIC [6, 11] was 0.06 µg/mL (≈ 0.157 µM). It also gave an MIC [6, 18] of 0.25 µg/mL (≈ 0.652 µM).

For `O=C(O)c1cn(C2CC2)c2cc(N3Cc4cccnc4C3)c(F)cc2c1=O` [Example 5, 1-cyclopropyl-7-(5,7-dihydro-6H-pyrrolo[3,4-b]-pyridin-6-yl)-6-fluoro-1,4-dihydro-4-oxo-3-quinolinecarboxylic acid], the MIC ([1]; E. coli strain 455/7) was 128 µg/mL (≈ 350 µM), the MIC ([1]; E. coli strain Neumann) was 0.13 µg/mL (≈ 0.356 µM) and the MIC [2, 8] was 0.25 µg/mL (≈ 0.684 µM). It also gave an MIC [2, 15] of 0.25 µg/mL (≈ 0.684 µM), an MIC ([3]; Klebsiella, 20 h) of 1 µg/mL (≈ 2.74 µM) and an MIC [7, 16] of 0.13 µg/mL (≈ 0.356 µM). It also gave an MIC [4, 17] of 0.5 µg/mL (≈ 1.37 µM), an MIC [5, 9] of 128 µg/mL (≈ 350 µM) and an MIC [6, 10] of 0.13 µg/mL (≈ 0.356 µM). For the same compound, the MIC [6, 11] was 0.13 µg/mL (≈ 0.356 µM).

For `O=C(O)c1cn(C2CC2)c2cc(N3Cc4ccncc4C3)c(F)cc2c1=O` [Example 4, 1-cyclopropyl-7-(2,3-dihydro-1H-pyrrolo[3,4-c]pyridin-2-yl)-6-fluoro-1,4-dihydro-4-oxo-3-quinolinecarboxylic acid], the MIC ([1]; E. coli strain 455/7) was 128 µg/mL (≈ 350 µM), the MIC ([1]; E. coli strain Neumann) was 0.06 µg/mL (≈ 0.164 µM) and the MIC [2, 8] was 0.25 µg/mL (≈ 0.684 µM). It also gave an MIC [2, 15] of 0.25 µg/mL (≈ 0.684 µM), an MIC [3, 14] of 0.25 µg/mL (≈ 0.684 µM) and an MIC [7, 16] of 0.5 µg/mL (≈ 1.37 µM). It also gave an MIC [4, 17] of 0.5 µg/mL (≈ 1.37 µM), an MIC [5, 9] of 4 µg/mL (≈ 10.9 µM) and an MIC [6, 10] of 0.06 µg/mL (≈ 0.164 µM). For the same compound, the MIC [6, 11] was 0.06 µg/mL (≈ 0.164 µM).
